Results: patent US10597388B2, “Pyridazinone herbicides” (FMC CORPORATION, priority 2014, dated 2020)

Assays:
Assay in all cases: Test D controlled growth environment herbicide test, pre- and postemergence
Assay type in all cases: in vivo
[1] = test system: bluegrass (annual bluegrass, Poa annua)
Summary of the method: (§1)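 Rating is visual, 0–100 scale (100 = complete control), made against untreated plants 14–21 d after treatment in controlled growth conditions. Postemergence sprays went onto 1- to 4-leaf plants in peat medium; preemergence sprays onto silt loam after sowing; formulation included a surfactant.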

[2] = test system: foxtail, green (green foxtail, Setaria viridis)
Summary of the method: as §1

[3] = test system: mustard, wild (wild mustard, Sinapis arvensis)
Summary of the method: as §1

[4] = test system: galium (catchweed bedstraw, Galium aparine)
Summary of the method: as §1

[5] = test system: pigweed (Amaranthus retroflexus)
Summary of the method: as §1

[6] = test system: canarygrass (Phalaris minor)
Summary of the method: as §1

[7] = test system: oat, wild (wild oat, Avena fatua)
Summary of the method: as §1

[8] = test system: oilseed rape (Brassica napus)
Summary of the method: as §1

[9] = test system: wheat, spring (spring wheat, Triticum aestivum)
Summary of the method: as §1

[10] = test system: buckwheat, wild (wild buckwheat, Polygonum convolvulus)
Summary of the method: as §1

[11] = test system: barley, spring (spring barley, Hordeum vulgare)
Summary of the method: as §1

[12] = test system: barley, winter (winter barley, Hordeum vulgare)
Summary of the method: as §1

[13] = test system: field poppy (Papaver rhoeas)
Summary of the method: as §1

[14] = Postemergence, 31 g ai/ha, scale 0 to 100 (0 no effect, 100 complete control)
[15] = Postemergence, 125 g ai/ha, visual rating on scale 0 (no effect) to 100 (complete control), 14 to 21 d
[16] = Postemergence, 250 g ai/ha, scale 0 to 100 (0 no effect, 100 complete control)
[17] = Preemergence, 62 g ai/ha, scale 0 to 100 (0 no effect, 100 complete control)
[18] = Preemergence, 125 g ai/ha, scale 0 to 100 (0 no effect, 100 complete control)
[19] = Preemergence, 250 g ai/ha, scale 0 to 100, 0 no effect, 100 complete control
[20] = postemergence, 62 g ai/ha, scale 0 to 100, 0 no effect, 100 complete control

Cc1ccc2ccccc2c1-c1c(OC(=O)OC(C)C)c(C)nn(C)c1=O [Compound 72]
Bluegrass plant response rating [1, 14]: 20 | Plant response rating, Bluegrass [1, 15]: 40 | Plant response rating, Bluegrass [1, 16]: 55 | Plant response rating (scale of 0 to 100), Bluegrass ([1]; Preemergence, 31 g ai/ha): 10 | Plant response rating, Bluegrass [1, 17]: 25 | Plant response rating, Bluegrass [1, 18]: 25 | Plant response rating, Bluegrass [1, 19]: 50 | Plant response rating, Bluegrass [1, 20]: 35 | Foxtail, Green plant response rating [2, 14]: 60 | Plant response rating, Foxtail, Green [2, 15]: 70 | Plant response rating, Foxtail, Green [2, 16]: 75 | Plant response rating (scale of 0 to 100), Foxtail, Green ([2]; Preemergence, 31 g ai/ha): 20 | Plant response rating, Foxtail, Green [2, 17]: 30 | Plant response rating, Foxtail, Green [2, 18]: 60 | Plant response rating, Foxtail, Green [2, 19]: 85 | Plant response rating, Foxtail, Green [2, 20]: 65 | Mustard, Wild plant response rating [3, 14]: 85 | Plant response rating, Mustard, Wild [3, 15]: 100 | Plant response rating, Mustard, Wild [3, 16]: 100 | Plant response rating (scale of 0 to 100), Mustard, Wild ([3]; Preemergence, 31 g ai/ha): 0 | Plant response rating, Mustard, Wild [3, 17]: 25 | Plant response rating, Mustard, Wild [3, 18]: 60 | Plant response rating, Mustard, Wild [3, 19]: 80 | Plant response rating, Mustard, Wild [3, 20]: 100 | Galium plant response rating [4, 14]: 95 | Plant response rating, Galium [4, 15]: 100 | Plant response rating, Galium [4, 16]: 100 | Plant response rating (scale of 0 to 100), Galium ([4]; Preemergence, 31 g ai/ha): 20 | Plant response rating, Galium [4, 17]: 60 | Plant response rating, Galium [4, 18]: 70 | Plant response rating, Galium [4, 19]: 85 | Plant response rating, Galium [4, 20]: 100 | Pigweed plant response rating [5, 14]: 95 | Plant response rating, Pigweed [5, 15]: 100 | Plant response rating, Pigweed [5, 16]: 100 | Plant response rating (scale of 0 to 100), Pigweed ([5]; Preemergence, 31 g ai/ha): 35 | Plant response rating, Pigweed [5, 17]: 85 | Plant response rating, Pigweed [5, 18]: 95 | Plant response rating, Pigweed [5, 19]: 100 | Plant response rating, Pigweed [5, 20]: 100 | Canarygrass plant response rating [6, 14]: 40 | Plant response rating, Canarygrass [6, 15]: 80 | Plant response rating, Canarygrass [6, 16]: 85 | Plant response rating (scale of 0 to 100), Canarygrass ([6]; Preemergence, 31 g ai/ha): 0 | Plant response rating, Canarygrass [6, 17]: 80 | Plant response rating, Canarygrass [6, 18]: 85 | Plant response rating, Canarygrass [6, 19]: 95 | Plant response rating, Canarygrass [6, 20]: 50 | Oat, Wild plant response rating [7, 14]: 85 | Plant response rating, Oat, Wild [7, 15]: 95 | Plant response rating, Oat, Wild [7, 16]: 98 | Plant response rating (scale of 0 to 100), Oat, Wild ([7]; Preemergence, 31 g ai/ha): 65 | Plant response rating, Oat, Wild [7, 17]: 75 | Plant response rating, Oat, Wild [7, 18]: 85 | Plant response rating, Oat, Wild [7, 19]: 95 | Plant response rating, Oat, Wild [7, 20]: 85 | Oilseed Rape plant response rating [8, 14]: 65 | Plant response rating, Oilseed Rape [8, 15]: 80 | Plant response rating, Oilseed Rape [8, 16]: 90 | Plant response rating (scale of 0 to 100), Oilseed Rape ([8]; Preemergence, 31 g ai/ha): 5 | Plant response rating, Oilseed Rape [8, 17]: 15 | Plant response rating, Oilseed Rape [8, 18]: 15 | Plant response rating, Oilseed Rape [8, 19]: 25 | Plant response rating, Oilseed Rape [8, 20]: 70 | Wheat, Spring plant response rating [9, 14]: 40 | Plant response rating, Wheat, Spring [9, 15]: 60 | Plant response rating, Wheat, Spring [9, 16]: 70 | Plant response rating (scale of 0 to 100), Wheat, Spring ([9]; Preemergence, 31 g ai/ha): 0 | Plant response rating, Wheat, Spring [9, 17]: 35 | Plant response rating, Wheat, Spring [9, 18]: 65 | Plant response rating, Wheat, Spring [9, 19]: 80 | Plant response rating, Wheat, Spring [9, 20]: 50 | Buckwheat, Wild plant response rating [10, 14]: 95 | Plant response rating, Buckwheat, Wild [10, 15]: 100 | Plant response rating, Buckwheat, Wild [10, 16]: 100 | Plant response rating (scale of 0 to 100), Buckwheat, Wild ([10]; Preemergence, 31 g ai/ha): 0 | Plant response rating, Buckwheat, Wild [10, 17]: 0 | Plant response rating, Buckwheat, Wild [10, 18]: 15 | Plant response rating, Buckwheat, Wild [10, 19]: 10 | Plant response rating, Buckwheat, Wild [10, 20]: 100 | Barley, Spring plant response rating [11, 14]: 5 | Plant response rating, Barley, Spring [11, 15]: 10 | Plant response rating, Barley, Spring [11, 16]: 15 | Plant response rating (scale of 0 to 100), Barley, Spring ([11]; Preemergence, 31 g ai/ha): 0 | Plant response rating, Barley, Spring [11, 17]: 0 | Plant response rating, Barley, Spring [11, 18]: 0 | Plant response rating, Barley, Spring [11, 19]: 60 | Plant response rating, Barley, Spring [11, 20]: 5 | Barley, Winter plant response rating [12, 14]: 10 | Plant response rating, Barley, Winter [12, 15]: 30 | Plant response rating, Barley, Winter [12, 16]: 35 | Plant response rating (scale of 0 to 100), Barley, Winter ([12]; Preemergence, 31 g ai/ha): 5 | Plant response rating, Barley, Winter [12, 17]: 25 | Plant response rating, Barley, Winter [12, 18]: 50 | Plant response rating, Barley, Winter [12, 19]: 75 | Plant response rating, Barley, Winter [12, 20]: 20 | Field Poppy plant response rating [13, 14]: 80 | Plant response rating, Field Poppy [13, 15]: 100 | Plant response rating, Field Poppy [13, 16]: 100 | Plant response rating (scale of 0 to 100), Field Poppy ([13]; Preemergence, 31 g ai/ha): 100 | Plant response rating, Field Poppy [13, 17]: 100 | Plant response rating, Field Poppy [13, 18]: 100 | Plant response rating, Field Poppy [13, 19]: 100 | Plant response rating, Field Poppy [13, 20]: 90
